Data: publication PMC5570892, “Indole-based perenosins as highly potent HCl transporters and potential anti-cancer agents” (Scientific Reports, 2017)

Legend:
MDA-MB-231 cells = test: Annexin-V flow cytometric apoptosis assay; type: cell-based, human
Method: The specific late onset of affecting cell viability induced by perenosins is interesting, and to the best of our knowledge this phenomenon has not been observed for other anion transporters. […] It is known that synthetic transporters can disrupt ion homeostasis in cells and induce cell death via an apoptotic pathway, [22], [32], [63], [64].
S11.3 Apoptosis Evaluation through Annexin-V Assay
MDA-MB-231 cells (1x10^5 cells) were seeded in 6-well plates and, after 24 h, they were treated with […]
Afterwards, cells were detached, centrifuged at 300 g for 5 min and resuspended in 1 ml of 1X PBS-1% FBS. Then, 100 µl of cell suspension were mixed with Annexin-V kit buffer (1:1; Muse Annexin V & Dead Cell Assay, Merck Millipore, Merck KGaA, Darmstadt, Germany). After 20 min incubation at room temperature, cells were examined on the Muse™ Cell Analyzer (Merck Millipore). All the conditions were assessed in three independent experiments. Results are shown as the mean value ± S.D. and representative results are shown in the […]
Figure S154. Flow cytometry of MDA-MB-231 cells treated with IC50 concentrations of compound 2 and 6 for 48 and 72 hours plus 10 µM of compound 6 for 72 h. Axes show Annexin-V binding versus […]
(1 picture or pasted object on this page, not shown here)

[1] = Cl^−/NO3^− ISE assay in POPC:cholesterol (7:3) vesicles; type: biochemical; conditions: 0.1 mol% loading, pH 7.2
Method: To further probe other aspects of transmembrane transport mechanism of perenosins, a variety of studies were employed. […] Using the same conditions for sulfate transport, and adding a bicarbonate pulse at 120 s to give a final external bicarbonate concentration of 40 mM, allowed observation of potential Cl^−/HCO3 ^− antiport elicited by 1d and 2–8; no Cl^− efflux was detected, presumably due to the basicity of bicarbonate anion preventing protonation of the imine-N2. Finally, preincorporation of 1d and 2–6 into POPC vesicles followed by performing a similar NMDG-Cl assay, and subsequent dilution of the resulting lipid solution, investigated how perenosins behave in a lipid membrane environment. […] See Supplementary Information for more details of results and experimental details of these assays.
S10. Anion Transport Studies
S10.1. General Procedure for the ISE Assay
Unilamellar vesicles were prepared using previously reported literature procedures7-9. A lipid film of POPC (1-palmitoyl-2-oleoyl-sn-glycero-3-phosphocholine) or POPC:cholesterol (7:3 molar ratio) was prepared from a chloroform solution under reduced pressure and then dried under vacuum for 4 or more hours. The lipid film was rehydrated by vortexing with an internal solution of buffered metal chloride salt (usually 489 mM MCl). The lipid suspension was then subjected to 9 freeze-thaw cycles and left to rest at room temperature for 30 minutes. After this, the suspension was extruded 25 times through a 200 nm polycarbonate membrane resulting in unilamellar vesicles of a mean diameter of 200 nm. […]
The lipid stock was diluted with the external buffer solution to a standard volume (5 mL), to afford a solution with a lipid concentration of 1 mM. The compounds were added as a DMSO solution (10 μL) at the start of the experiment and the resulting chloride efflux was monitored using a chloride selective electrode over 5 minutes. After this time, detergent (50 μL of Triton X-100 (11 w%) in H2O:DMSO (7:1 v/v)) was added to lyse the vesicles and after 7 minutes a final chloride efflux reading was taken. […]

| SMILES | apoptosis induction (Annexin-V) (MDA-MB-231 cells; 10 µM) | apoptosis induction (Annexin-V) (MDA-MB-231 cells; at IC50 value, 48 h and 72 h) | chloride efflux in POPC:Cholesterol (7:3) vesicles [1] |
| --- | --- | --- | --- |
| CCCCCc1cc2cc(C)cc(/N=C/c3[nH]c(C)c(CCCCC)c3C)c2[nH]1 [Perenosin 6] | increase in both early and late apoptotic cell populations | slight increase in apoptotic cells |  |
| CCCCCc1cc2cc(C)cc(/N=C/c3[nH]c4ccccc4c3C)c2[nH]1 [Perenosin 8] |  |  | no chloride efflux |
| CCCCCc1cc(/N=C/c2[nH]c3ccccc3c2C)c2[nH]ccc2c1 [Perenosin 7] |  |  | no chloride efflux |
| CCCCCc1cc2cc(C)cc(/N=C/c3[nH]c(C)cc3C)c2[nH]1 [Perenosin 2] |  | clearly induces cell death by apoptosis | 70% |
